In the assay the target is S-adenosylmethionine synthase isoform type-2 (Homo sapiens, UniProt P31153). Put plainly: In Vitro Enzymatic Inhibition Activity Assay. The procedure: Enzymatic activity assays of compounds of this patent against MAT2A (to detect half inhibitory concentration IC50 values of the compounds) were performed using the phosphate detection kit PiColorLockTM (ab270004, purchased from Abcam). This method utilized the principle that purified human MAT2A enzyme catalyzes the formation of S-adenosylmethionine (SAM) from L-methionine and ATP to release free phosphate, and used the spectrophotometric method to quantify phosphate, so as to determine the enzymatic activity of MAT2A. Compounds were diluted in a 10-fold gradient starting at 1 mM with 100% DMSO (for a total of 8 concentrations) and 2 μL of each concentration was added to 48 μL of reaction buffer (50 mM Tris-HCl PH 7.5, 50 mM KCl, 10 mM MgCl2, 0.01% Brij-35, 0.01% BSA, 1 mM DTT) and mixed well. The final diluted compound was prepared, and 5 μL of MAT2A enzyme (final concentration of 10 nM), 5 μL of ATP (final concentration of 50 μM), and 5 μL of L-methionine (final concentration of 100 μM) were added to each well of a 384-well plate (#3701, purchased from CORNING). After the 384-well plate was placed in the incubator at 23° C. for 6 h, 5 μL of PiColorLock reagent diluted Accelerator (dilution ratio 1:100) was added to each well, and the reaction was stopped by incubating in the incubator at 23° C. for 5 min. 2 μL of Stabiliser was added, the absorbance was read at 630 nm on BMG CLARIOstar, and the IC50 value of the compound was calculated by using GraphPad Prism software.
S-adenosylmethionine synthase isoform type-2, sequence (P31153 whole entry, canonical isoform): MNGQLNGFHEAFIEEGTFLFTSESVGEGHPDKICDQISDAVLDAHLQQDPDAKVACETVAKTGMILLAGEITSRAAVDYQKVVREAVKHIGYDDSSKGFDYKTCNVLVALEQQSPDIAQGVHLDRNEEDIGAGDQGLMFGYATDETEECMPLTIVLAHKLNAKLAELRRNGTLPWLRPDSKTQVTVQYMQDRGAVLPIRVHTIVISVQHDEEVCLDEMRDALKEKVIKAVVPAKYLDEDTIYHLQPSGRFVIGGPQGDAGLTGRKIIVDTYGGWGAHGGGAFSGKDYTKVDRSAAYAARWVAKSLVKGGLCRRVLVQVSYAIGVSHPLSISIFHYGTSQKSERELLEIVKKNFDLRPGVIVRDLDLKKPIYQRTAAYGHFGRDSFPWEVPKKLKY

Each structure is given as a SMILES string.

Consider `COC(=O)c1c(N)c2ccc(OC(F)F)cc2n(-c2ccc(N)cc2)c1=O` [US20250221979, Example 320], for which the IC50 worked out at 1.19 nM. `COC(=O)c1c(N)c2ncc(C3CC3)nc2n(-c2ccc(C(C)O)cc2)c1=O` (stereo not drawn) [US20250221979, Example 356] gave an IC50 of 1.19 nM. The value for `COC(=O)c1c(N)c2ccc(OC(F)F)nc2n(-c2ccc([C@@H](C)O)cc2)c1=O` [US20250221979, Example 372] was 1.96 nM.

The term IC50 denotes the concentration needed to halve the response being measured. A high value points to weaker potency.
